From PubChem BioAssay AID328 (DTP/NCI, 2004)
Several values for one entry are separate records, joined by “and”; a condition that tells them apart may be missing. Equal values may be shown once. Inconclusive results and toxic doses are left out.

Test system: BDF1 mice, P388 leukemia ip, median survival T/C
Experiment: NCI In Vivo Anticancer Drug Screen. Data for tumor model P388 Leukemia (intraperitoneal) in B6D2F1 (BDF1) mice
Details: endpoint: median survival time, higher = longer survival
How it was run: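 Each value expresses how treatment altered survival: treated-mouse outcome over vehicle-mouse outcome, both groups bearing the transplanted tumour.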

[1] = dose: 25.0 mg/kg/injection, schedule: Q01DX009 (ip), vehicle: saline with Tween-80
[2] = dose: 50.0 mg/kg/injection, schedule: Q01DX009 (ip), vehicle: saline with Tween-80
[3] = dose: 100.0 mg/kg/injection, schedule: Q01DX009 (ip), vehicle: saline with Tween-80
[4] = dose: 100.0 mg/kg/injection, schedule: Q04DX003 (ip), vehicle: saline with Tween-80
[5] = dose: 200.0 mg/kg/injection, schedule: Q01DX009 (ip), vehicle: saline with Tween-80
[6] = dose: 1.56 mg/kg/injection, schedule: Q01DX009 (ip), vehicle: water
[7] = dose: 6.25 mg/kg/injection, schedule: Q01DX009 (ip), vehicle: water
[8] = dose: 100.0 mg/kg/injection, schedule: Q04DX003 (ip), vehicle: Klucel (hydroxypropylcellulose) (HPC)
[9] = dose: 200.0 mg/kg/injection, schedule: Q04DX003 (ip), vehicle: Klucel (hydroxypropylcellulose) (HPC)
[10] = dose: 400.0 mg/kg/injection, schedule: Q04DX003 (ip), vehicle: Klucel (hydroxypropylcellulose) (HPC)
[11] = dose: 12.5 mg/kg/injection, schedule: Q01DX009 (ip), vehicle: saline with Tween-80
[12] = dose: 100.0 mg/kg/injection, schedule: Q04DX003 (ip), vehicle: saline
[13] = dose: 200.0 mg/kg/injection, schedule: Q04DX003 (ip), vehicle: saline
[14] = dose: 200.0 mg/kg/injection, schedule: Q04DX003 (ip), vehicle: saline with Tween-80
[15] = dose: 400.0 mg/kg/injection, schedule: Q04DX003 (ip), vehicle: saline with Tween-80

## OCCOc1c(Cl)c(Cl)c(Cl)c(Cl)c1Cl
[1]
  T/C: 100 % of control
[2]
  T/C: 104 % of control
dose: 50.0 mg/kg/injection, schedule: Q04DX003 (ip), vehicle: saline with Tween-80
  T/C: 100 % of control
[3]
  T/C: 118 % of control
[4]
  T/C: 100 % of control

## O=[N+]([O-])c1ccc(F)c(CNc2ncnc3c2ncn3C2CCCCO2)c1 (stereo unspecified)
dose: 100.0 mg/kg/injection, schedule: Q01DX001 (ip), vehicle: Klucel (hydroxypropylcellulose) (HPC)
  T/C: 95 % of control
dose: 200.0 mg/kg/injection, schedule: Q01DX001 (ip), vehicle: Klucel (hydroxypropylcellulose) (HPC)
  T/C: 110 % of control
dose: 400.0 mg/kg/injection, schedule: Q01DX001 (ip), vehicle: Klucel (hydroxypropylcellulose) (HPC)
  T/C: 105 % of control

## Cc1ccc(-c2nc3ccccc3c(=O)n2/N=C/c2ccc(Cl)cc2Cl)cc1
[2]
  T/C: 100 % of control
[3]
  T/C: 89 % of control
[5]
  T/C: 90 % of control

## COc1cccc2c1C(=O)c1c(O)c3c(c(O)c1C2=O)C[C@@](O)(/C(C)=N/NC(=O)c1ccccc1)C[C@@H]3OC1CC(N(C)C)C(O)C(C)O1 (stereo partly specified)
dose: 0.78 mg/kg/injection, schedule: Q01DX009 (ip), vehicle: water
  T/C: 161 % of control
[6]
  T/C: 186 % of control
dose: 3.13 mg/kg/injection, schedule: Q01DX009 (ip), vehicle: water
  T/C: 236 % of control
[7]
  T/C: 96 % of control

## COc1ccc(/C=C/C(=O)c2ccccc2)cc1Br
[3]
  T/C: 109 % of control
[5]
  T/C: 109 % of control
dose: 400.0 mg/kg/injection, schedule: Q01DX009 (ip), vehicle: saline with Tween-80
  T/C: 113 % of control

## CC1(C)C2CC3C(=CCCC3C#N)C1C2 (stereo unspecified)
[8]
  T/C: 100 % of control
[9]
  T/C: 100 % of control
[10]
  T/C: 100 % of control

## S=c1nc[nH]c2nc[nH]c12
[11]
  T/C: 104 % of control
dose: 15.0 mg/kg/injection, schedule: Q01DX010 (ip), vehicle: saline
  T/C: 150 % of control
dose: 20.0 mg/kg/injection, schedule: Q01DX010 (ip), vehicle: saline
  T/C: 100 % of control
dose: 20.0 mg/kg/injection, schedule: Q01DX010 (ip), vehicle: water
  T/C: 110 % of control
[1]
  T/C: 113 % of control
dose: 26.0 mg/kg/injection, schedule: Q01DX009 (ip), vehicle: alkali diluted with saline
  T/C: 104 % of control and 107 % of control
dose: 30.0 mg/kg/injection, schedule: Q01DX010 (ip), vehicle: saline
  T/C: 90 % of control and 104 % of control
dose: 40.0 mg/kg/injection, schedule: Q01DX010 (ip), vehicle: saline
  T/C: 100 % of control
dose: 40.0 mg/kg/injection, schedule: Q01DX010 (ip), vehicle: water
  T/C: 110 % of control
dose: 60.0 mg/kg/injection, schedule: Q01DX010 (ip), vehicle: water
  T/C: 110 % of control
dose: 72.0 mg/kg/injection, schedule: Q01DX009 (ip), vehicle: alkali diluted with saline
  T/C: 117 % of control
dose: 80.0 mg/kg/injection, schedule: Q01DX010 (ip), vehicle: saline
  T/C: 104 % of control
dose: 90.0 mg/kg/injection, schedule: Q01DX009 (ip), vehicle: alkali diluted with saline
  T/C: 107 % of control and 111 % of control
dose: 120.0 mg/kg/injection, schedule: Q01DX009 (ip), vehicle: alkali diluted with saline
  T/C: 103 % of control
dose: 120.0 mg/kg/injection, schedule: Q01DX010 (ip), vehicle: saline
  T/C: 109 % of control
dose: 160.0 mg/kg/injection, schedule: Q01DX010 (ip), vehicle: saline
  T/C: 90 % of control

## O=c1cc(-c2ccccc2)nc2c(Cl)cc(Cl)cn12
[8]
  T/C: 89 % of control
[9]
  T/C: 100 % of control
[10]
  T/C: 96 % of control

## Nc1nc2ncc(CN(CCS(=O)(=O)F)c3ccc(C(=O)NC(CCC(=O)O)C(=O)O)cc3)nc2c(=O)[nH]1 (stereo unspecified)
dose: 50.0 mg/kg/injection, schedule: Q04DX003 (ip), vehicle: sodium bicarbonate
  T/C: 105 % of control
dose: 100.0 mg/kg/injection, schedule: Q04DX003 (ip), vehicle: sodium bicarbonate
  T/C: 99 % of control
dose: 200.0 mg/kg/injection, schedule: Q04DX003 (ip), vehicle: sodium bicarbonate
  T/C: 94 % of control

## CC(=O)c1cccc(OCC(O)CN(C(C)C)C(C)C)c1 (stereo unspecified)
[12]
  T/C: 104 % of control
[13]
  T/C: 109 % of control

## O=C1c2cc(Cl)ccc2-c2c(NC(=O)C(Cl)Cl)cc(Cl)cc21
[4]
  T/C: 104 % of control
[14]
  T/C: 113 % of control
[15]
  T/C: 104 % of control

## CCOC(=O)C(C)(OCC)OCC
dose: 50.0 mg/kg/injection, schedule: Q01DX009 (ip), vehicle: saline
  T/C: 105 % of control
dose: 100.0 mg/kg/injection, schedule: Q01DX009 (ip), vehicle: saline
  T/C: 110 % of control
dose: 100.0 mg/kg/injection, schedule: Q01DX009 (ip), vehicle: water
  T/C: 98 % of control
[12]
  T/C: 100 % of control
dose: 100.0 mg/kg/injection, schedule: Q04DX003 (ip), vehicle: water
  T/C: 104 % of control
dose: 200.0 mg/kg/injection, schedule: Q01DX009 (ip), vehicle: saline
  T/C: 115 % of control
dose: 200.0 mg/kg/injection, schedule: Q01DX009 (ip), vehicle: water
  T/C: 101 % of control
[13]
  T/C: 91 % of control
dose: 200.0 mg/kg/injection, schedule: Q04DX003 (ip), vehicle: water
  T/C: 95 % of control
dose: 400.0 mg/kg/injection, schedule: Q04DX003 (ip), vehicle: saline
  T/C: 91 % of control
dose: 400.0 mg/kg/injection, schedule: Q04DX003 (ip), vehicle: water
  T/C: 100 % of control

## Cc1ccc(C(=O)C2CC2)c(C)c1
[2]
  T/C: 92 % of control
[3]
  T/C: 103 % of control
[4]
  T/C: 112 % of control
[5]
  T/C: 100 % of control
[14]
  T/C: 120 % of control
[15]
  T/C: 108 % of control

## O=C(O)CSc1cc(-c2ccc(Cl)cc2)s[s+]1
[6]
  T/C: 104 % of control
dose: 2.0 mg/kg/injection, schedule: Q04DX003 (ip), vehicle: water
  T/C: 100 % of control
dose: 3.12 mg/kg/injection, schedule: Q01DX009 (ip), vehicle: water
  T/C: 115 % of control
dose: 4.0 mg/kg/injection, schedule: Q04DX003 (ip), vehicle: water
  T/C: 112 % of control
[7]
  T/C: 112 % of control
dose: 6.25 mg/kg/injection, schedule: Q04DX003 (ip), vehicle: water
  T/C: 117 % of control
dose: 8.0 mg/kg/injection, schedule: Q04DX003 (ip), vehicle: water
  T/C: 100 % of control
dose: 12.5 mg/kg/injection, schedule: Q01DX009 (ip), vehicle: water
  T/C: 107 % of control
dose: 12.5 mg/kg/injection, schedule: Q04DX003 (ip), vehicle: water
  T/C: 100 % of control
dose: 16.0 mg/kg/injection, schedule: Q04DX003 (ip), vehicle: water
  T/C: 90 % of control
dose: 25.0 mg/kg/injection, schedule: Q04DX003 (ip), vehicle: water
  T/C: 97 % of control
dose: 50.0 mg/kg/injection, schedule: Q04DX003 (ip), vehicle: water
  T/C: 97 % of control

## COc1ccc(C(C)c2ccccc2)cc1 (stereo unspecified)
[4]
  T/C: 110 % of control
[14]
  T/C: 105 % of control
[15]
  T/C: 100 % of control

## Cc1nc(-c2ccc(N=Cc3ccc(N(CCOS(C)(=O)=O)CCOS(C)(=O)=O)cc3C)cc2)cs1
dose: 11.0 mg/kg/injection, schedule: Q01DX009 (ip), vehicle: Klucel (hydroxypropylcellulose) (HPC)
  T/C: 247 % of control
dose: 16.5 mg/kg/injection, schedule: Q01DX009 (ip), vehicle: Klucel (hydroxypropylcellulose) (HPC)
  T/C: 277 % of control and 176 % of control
dose: 24.75 mg/kg/injection, schedule: Q01DX009 (ip), vehicle: Klucel (hydroxypropylcellulose) (HPC)
  T/C: 108 % of control
dose: 25.0 mg/kg/injection, schedule: Q01DX009 (ip), vehicle: Klucel (hydroxypropylcellulose) (HPC)
  T/C: 111 % of control

## C(=Nc1ccc(/C=C\c2ccnc3ccccc23)cc1)Nc1ccc(/C=C\c2ccnc3ccccc23)cc1
[11]
  T/C: 100 % of control
[1]
  T/C: 107 % of control
[2]
  T/C: 100 % of control
[5]
  T/C: 97 % of control

## O=C1CCCC(=O)N1CCCCCCN1C(=O)CCCC1=O
[2]
  T/C: 104 % of control
[3]
  T/C: 112 % of control

## CCCCCCC/C=C\c1cnc2nc(N)nc(N)c2n1
[4]
  T/C: 92 % of control
[14]
  T/C: 89 % of control
[15]
  T/C: 92 % of control

## Cc1cc(=O)[nH]c2cc(Br)ccc12
dose: 100.0 mg/kg/injection, schedule: Q01DX001 (ip), vehicle: saline with Tween-80
  T/C: 104 % of control
dose: 200.0 mg/kg/injection, schedule: Q01DX001 (ip), vehicle: saline with Tween-80
  T/C: 90 % of control
dose: 400.0 mg/kg/injection, schedule: Q01DX001 (ip), vehicle: saline with Tween-80
  T/C: 90 % of control
